Where “and” joins values, the source holds several entries; their conditions need not be identical. Identical values can stand only once. Like-named read-outs stand apart in the source and are kept apart here.
How the values were obtained:
eeAChE = biological target: T1, eeAChE (Electrophorus electricus, UniProt O42275); test: biochemical; parameters: species or system electric eel
T1 construct: eeAChE, from the electric eel; purchased Sigma Aldrich; host or cells: electric eel (natural source)
Protocol: (§1) The inhibitory activities of the synthesised compounds against eeAChE (from electric eel) and eqBuChE (from equine serum) were tested by the modified Ellman’s method[26]^,[27]. […] The determination of AChE and BuChE inhibitory potency of the synthesised compounds were evaluated by Ellman assay, the detailed procedure referred to our previous work[26]^,[27].

eqBuChE = biological target: T2, eqBuChE (Equus caballus, UniProt P81908); test: biochemical; parameters: species or system equine; details: for inhibition at 25 µM: read-out: eqBuChE inhibition rate; for IC50: BuChE from equine serum; for SI = IC50 (AChE)/IC50 (BuChE): eeAChE/eqBuChE
T2 construct: eqBuChE, from equine serum; purchased Sigma Aldrich; host or cells: equine serum (natural source)
T2 sequence (P81908 whole entry): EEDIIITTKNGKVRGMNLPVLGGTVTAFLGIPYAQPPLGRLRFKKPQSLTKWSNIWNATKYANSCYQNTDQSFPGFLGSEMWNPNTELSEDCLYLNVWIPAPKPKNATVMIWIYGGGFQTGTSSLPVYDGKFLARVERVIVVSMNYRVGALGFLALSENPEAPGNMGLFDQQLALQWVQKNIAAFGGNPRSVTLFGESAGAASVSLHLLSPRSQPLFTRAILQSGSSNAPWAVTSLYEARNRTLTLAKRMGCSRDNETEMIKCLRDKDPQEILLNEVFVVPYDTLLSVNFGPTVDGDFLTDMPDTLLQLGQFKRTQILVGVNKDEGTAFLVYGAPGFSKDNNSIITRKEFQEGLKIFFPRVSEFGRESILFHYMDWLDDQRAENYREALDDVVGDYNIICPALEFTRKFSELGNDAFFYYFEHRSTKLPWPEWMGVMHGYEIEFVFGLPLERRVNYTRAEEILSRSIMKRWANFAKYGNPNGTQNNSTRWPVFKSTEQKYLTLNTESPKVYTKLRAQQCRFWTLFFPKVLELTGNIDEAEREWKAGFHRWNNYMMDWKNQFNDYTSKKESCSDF
Protocol: as §1

BV-2 cells = test: Cytotoxicity on BV-2 cells (CCK8 assay); assay type: cell-based; details: compounds at 2 µM
Protocol: (§2) Firstly, the cytotoxicity of compounds 3a, 3c, 3e, 3f, 3k, 3m and 3n were tested using CCK8 assay.
BV-2 cells were cultured in DMEM containing 10% foetal bovine serum, 100 U/mL penicillin, 100 U/mL streptomycin, and 1% nonessential amino acid at 37 °C with 5% CO2.
BV-2 cells in logarithmic growth stage were digested and centrifuged, and then resuspended in DMEM medium containing 1% penicillin-streptomycin and 10% foetal bovine serum. The cells was adjusted to 1.2 × 10^4 cells/well, and then seeded evenly in 96-well cell culture plates. The cells were incubated for 36 h at 37 °C with 5% CO2. After incubation, the cells were added to different concentrations (10 and 2 µM) of tested compounds, and incubated for 24 h at 37 °C with 5% CO2. Then, 10 µL CCK-8 solution was added to each well, and incubated for another 1 h at 37 °C with 5% CO2. The OD values were tested at […]. The cell viability (%) = {(ODdrug−ODblank)}/{(ODcontrol−ODblank)} × 100%.

IL-6 = IL-6 production in LPS-stimulated BV-2 cells (ELISA); assay type: cell-based; details: 1 µM and 2 µM; 1 µg/mL LPS 24 h
Protocol: as §2
(§3) BV-2 cells (2 × 10^5 cells/well) were seeded in a 24-well cell culture plates. The cells were divided into blank control group, model group (1 µg/mL LPS), LPS + 2 µM compound group, LPS + 1 µM compound group. Each drug group was pre-treated with corresponding concentration of drug solution for 8 h. After 8 h, the culture medium was aspirated out. Except for the blank control group, which was added with DMEM medium, the other groups were stimulated with 1 µg/mL LPS for 24 h. Then cell supernatant was aspirated and centrifuged at 3000 rpm for 3 min. The content of NO in cell culture supernatant was determined by Griess method, and the levels of cytokines IL-6 and IL-1β in cell culture supernatant were determined by IL-6 ELISA kit and IL-1β ELISA kit, respectively.

IL-1β = IL-1β production in LPS-stimulated BV-2 cells (ELISA); assay type: cell-based; details: 1 µg/mL LPS 24 h
Protocol: as §2, §3

NO = NO release in LPS-stimulated BV-2 cells (Griess method); assay type: cell-based; details: 1 µg/mL LPS 24 h
Protocol: as §2, §3

PC12 cells = test: Cytotoxicity on PC12 cells; assay type: cell-based; details: at concentration below 40 µM
Protocol: (§4) The neuroprotective effect of compounds 3a, 3c, 3e, 3f, 3k, 3m, and 3n on Aβ25–35-induced PC12 cells injury were evaluated using CCK-8 assay. […] Furthermore, as shown in Figure 12(B), when PC12 cells were exposed to 25 µM Aβ25-35, the cell viability sharply declined to 57.3% (p < 0.01) compared with untreated group.
(§5) The PC12 cells during the logarithmic growth phase were digested and centrifuged with pancreatic enzyme solution, the cells were resuspended by adding the prepared media solution, and piped evenly with a pipette to seed in a 96-well cell culture plate (cell concentration adjusted to 2.0 × 10^4 cell·mL^−1). Each well was added 100 µL complete medium was added to each well and incubated at 37 °C and 5% CO2 for 24 h.

[1] = system: Aβ25-35-induced PC12 cells injury; test: Neuroprotective effect on Aβ25-35-induced PC12 cells injury (CCK-8); assay type: cell-based; details: 25 µM Aβ25-35; model cell viability 57.3%
Protocol: as §4
• Preparation of Aβ25-35 aggregation. Aβ25-35 was purchased from sigma. 1 mg Aβ25-35 was dissolved in 943 µL of sterilised deionised water to obtain 1 mM stock solution, aliquoted, –20 °C preservation. Removing the appropriate volume in a 48-well plate and incubated in a 37 °C incubator for two days to allow its ageing to accumulate and produce neurotoxicity. After aggregation was completed, the solution was diluted with PBS to get 25 µM solution of Aβ25-35 aggregation. • Neuroprotective effects of compounds on Aβ25-35-induced PC12 cells injury
as §5
After incubation for 24 h, PC12 cells were divided into blank group, control group, Aβ25-35 model group and tested compounds group (5, 10, 20 µM). Then the original medium was discarded, and 100 µL new complete medium were added to PC12 cells, and the tested compounds group was added to 100 µL complete medium containing different concentrations (5, 10, and 20 µM) of tested compounds, incubated for 2 h at 37 °C, 5% CO2 conditions. After incubation for 2 h, 10 µL Aβ25-35 solution was added to the tested compounds groups and model group (the final concentration of Aβ25-35 was 25 µM), and incubated for 24 h at 37 °C, 5% CO2 conditions, 10 µL CCK-8 was added to each well and further incubated for 1 h at 37 °C and 5% CO2. Finally, the OD value was measured at 450 nm using a microplate reader, and each concentration set three wells. The cell survival rate (%) was determined according to the following formula: cell viability (%) = {(ODdrug−ODblank)}/{(ODcontrol−ODblank)}.

ACh = ACh level in AlCl3-induced zebrafish AD model tissue; assay type: in vivo; details: 8 µM; model 7.3, untreated 13.9 pmol/L
Source text: . After the behavioural experiments, the 168hpf zebrafish were killed and ground, the tissue were used to test the AChE activity and ACh levels. […] .

hAChE = biological target: T3, hAChE (Homo sapiens, UniProt P22303); test: biochemical; details: from human erythrocytes; read-out: IC50 ± SD hAChE
T3 construct: hAChE, from human erythrocytes AChE; purchased Sigma Aldrich; host or cells: human erythrocytes (natural source)
T3 sequence (P22303 32-617 isoform P22303-2 limits assumed): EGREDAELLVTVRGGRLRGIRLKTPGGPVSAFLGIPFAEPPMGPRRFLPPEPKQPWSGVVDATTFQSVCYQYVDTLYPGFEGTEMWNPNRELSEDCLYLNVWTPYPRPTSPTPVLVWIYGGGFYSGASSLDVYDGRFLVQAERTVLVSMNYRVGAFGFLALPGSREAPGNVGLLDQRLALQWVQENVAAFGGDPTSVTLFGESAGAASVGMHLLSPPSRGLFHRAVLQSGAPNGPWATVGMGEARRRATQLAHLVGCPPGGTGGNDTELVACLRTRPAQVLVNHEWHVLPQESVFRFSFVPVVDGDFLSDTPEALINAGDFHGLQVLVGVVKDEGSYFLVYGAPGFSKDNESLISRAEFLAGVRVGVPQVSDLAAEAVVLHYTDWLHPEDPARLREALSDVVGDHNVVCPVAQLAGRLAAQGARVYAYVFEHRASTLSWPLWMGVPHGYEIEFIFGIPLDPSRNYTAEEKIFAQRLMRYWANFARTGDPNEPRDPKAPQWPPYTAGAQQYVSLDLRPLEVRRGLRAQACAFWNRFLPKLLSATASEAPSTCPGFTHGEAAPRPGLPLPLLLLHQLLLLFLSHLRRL
Protocol: (§6) Acetylcholinesterase (eeAChE, from the electric eel; hAChE, from human erythrocytes AChE), butyrylcholinesterase (eqBuChE, from equine serum; hBuChE, human serum BuChE), 5,5′-dithiobis-2-nitrobenzoic acid (Ellman’s reagent, DTNB), acetylthiocholine chloride (ATC), and butyrylthiocholine chloride (BTC) were purchased form Sigma Aldrich. The determination of AChE and BuChE inhibitory potency of the synthesised compounds were evaluated by Ellman assay, the detailed procedure referred to our previous work[26]^,[27].

hBuChE = biological target: T4, hBuChE (Homo sapiens, UniProt P06276); test: biochemical
T4 construct: hBuChE, human serum BuChE; purchased Sigma Aldrich; host or cells: human serum (natural source)
T4 sequence (P06276 29-602): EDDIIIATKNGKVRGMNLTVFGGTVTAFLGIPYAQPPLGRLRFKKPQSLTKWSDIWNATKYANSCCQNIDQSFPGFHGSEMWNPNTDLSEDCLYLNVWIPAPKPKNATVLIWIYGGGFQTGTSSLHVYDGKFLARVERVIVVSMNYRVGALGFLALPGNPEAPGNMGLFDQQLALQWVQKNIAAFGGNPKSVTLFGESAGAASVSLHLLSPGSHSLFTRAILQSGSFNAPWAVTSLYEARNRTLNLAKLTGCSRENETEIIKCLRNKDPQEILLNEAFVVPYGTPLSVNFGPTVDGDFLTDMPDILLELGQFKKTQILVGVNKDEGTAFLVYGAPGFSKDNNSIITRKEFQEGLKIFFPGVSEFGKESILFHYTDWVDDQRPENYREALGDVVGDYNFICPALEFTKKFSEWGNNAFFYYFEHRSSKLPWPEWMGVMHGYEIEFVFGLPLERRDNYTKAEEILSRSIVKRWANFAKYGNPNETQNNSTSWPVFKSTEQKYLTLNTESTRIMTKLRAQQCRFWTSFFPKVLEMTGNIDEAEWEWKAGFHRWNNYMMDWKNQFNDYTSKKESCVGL
Protocol: as §6

[2] = AChE from electric eel, read-out: IC50 ± SD eeAChE

T1 sequence (O42275 24-633): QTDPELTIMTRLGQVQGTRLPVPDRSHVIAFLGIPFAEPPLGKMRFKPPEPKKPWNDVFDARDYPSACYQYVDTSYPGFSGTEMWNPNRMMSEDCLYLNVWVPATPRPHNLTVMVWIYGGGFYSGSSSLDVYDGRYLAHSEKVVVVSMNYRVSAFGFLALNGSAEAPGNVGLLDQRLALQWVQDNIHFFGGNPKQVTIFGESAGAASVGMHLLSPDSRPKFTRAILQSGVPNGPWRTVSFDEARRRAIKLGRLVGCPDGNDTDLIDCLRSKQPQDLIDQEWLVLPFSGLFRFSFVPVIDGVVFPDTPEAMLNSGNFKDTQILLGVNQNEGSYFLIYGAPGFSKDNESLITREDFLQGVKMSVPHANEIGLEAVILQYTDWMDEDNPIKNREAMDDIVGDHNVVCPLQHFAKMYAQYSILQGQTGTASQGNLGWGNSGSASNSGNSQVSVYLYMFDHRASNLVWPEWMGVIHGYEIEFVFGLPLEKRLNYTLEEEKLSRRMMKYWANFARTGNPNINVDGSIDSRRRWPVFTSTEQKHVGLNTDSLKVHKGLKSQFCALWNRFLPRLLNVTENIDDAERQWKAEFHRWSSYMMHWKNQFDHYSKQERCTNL

SMILES	IC50 (eeAChE)	IC50 (eqBuChE; IC50 ± SD eqBuChE)	SI = IC50 (AChE)/IC50 (BuChE) (eqBuChE)	cell viability of BV-2 cells (BV-2 cells)	levels of IL-6 compared with model group (IL-6)	levels of IL-1β compared with model group (IL-1β)	release volume of NO (NO)	cytotoxicity on PC12 cells (PC12 cells)	neuroprotective effect on Aβ25-35-induced PC12 cells injury [1]	also measured
CC(C)N(C(=O)Oc1cccc2cccnc12)C(C)C [Compound 3q, Quinolin-8-yl diisopropylcarbamate]	–	–	–	–	–	–	–	–	–	IC50 (eeAChE; [2]): 14.8 ± 0.68 µM; inhibition at 25 µM (eqBuChE; at 25 μM of compounds): 1.7 ± 0.01%
CCN(C)C(=O)Oc1cccc2ncccc12 [Compound 3g, Quinolin-5-yl ethyl(methyl)carbamate]	3.2 ± 0.05 µM	2.23 µM and 2.2 µM	1.4	–	–	–	–	–	–	–
CCN(C)C(=O)Oc1ccnc2ccccc12 [Compound 3c, Quinolin-4-yl ethyl(methyl)carbamate]	13.2 ± 0.51 µM	1.92 µM and 1.9 µM	6.9	did not show obvious change	significantly decreased	did not obviously decrease	significantly decreased	did not show any cytotoxicity	did not show significant neuroprotective effects	–
COc1cc2c(cc1OC)C(=O)C(CC1CCN(Cc3ccccc3)CC1)C2 (stereo not shown) [Donepezil, reference compound]	–	–	–	–	–	–	–	–	–	ACh activity (level) (ACh): 14.0 pmol/L
CCN(C)C(=O)Oc1cccc2cccnc12 [Compound 3o, Quinolin-8-yl ethyl(methyl)carbamate]	8.2 ± 0.06 µM	–	–	–	–	–	–	–	–	inhibition at 25 µM (eqBuChE): 4.1 ± 0.02%
CN(C)C(=O)Oc1cccc2cccnc12 [Compound 3m, Quinolin-8-yl dimethylcarbamate]	6.5 ± 0.05 µM	–	–	did not show obvious change	significantly decreased	did not obviously decrease	significantly decreased	did not show any cytotoxicity	significant neuroprotective effects at 5 and 10 µM	inhibition at 25 µM (eqBuChE): 7.3 ± 0.05%
O=C(Oc1ccnc2ccccc12)N1CCOCC1 [Compound 3d, Quinolin-4-yl morpholine-4-carboxylate]	–	–	18.0	–	–	–	–	–	–	IC50 (eeAChE; [2]): 15.7 ± 0.27 µM; IC50 (eqBuChE; read-out: IC50 ± SD eqBuChE): 0.87 ± 0.05 µM; IC50 (hAChE): 26.9 ± 0.74 µM; IC50 (hBuChE; from human serum, read-out: IC50 ± SD hBuChE): 9.46 µM and 9.5 µM; SI = IC50 (AChE)/IC50 (BuChE) (hBuChE; hAChE/hBuChE): 2.8
CN(C)C(=O)Oc1ccnc2ccccc12 [Compound 3a, Quinolin-4-yl dimethylcarbamate]	10.8 ± 0.33 µM	2.83 µM and 2.8 µM	3.8	did not show obvious change	significantly decreased	did not obviously decrease	significantly decreased	did not show any cytotoxicity	did not show significant neuroprotective effects	–

Source: article PMC9873282, “Design, synthesis and evaluation of quinoline-O-carbamate derivatives as multifunctional agents for the treatment of Alzheimer’s disease” (Journal of Enzyme Inhibition and Medicinal Chemistry, 2023)
